Assay results: patent publication US12459922B2 (Gilead Sciences, Inc., priority 2022, dated 2025)

tested on: endogenous cellular STAT1 (phosphorylated at Tyr701) in NCI-H1373 cells; experiment: Phospho-STAT1 (Tyr701) LANCE Ultra TR-FRET Detection Assay; format: cell-based; settings: Homo sapiens, NCI-H1373, 48 h, phospho-STAT1 (Tyr701) induction, read-out: NH1373 pSTAT1 EC50

Compound | EC50
COc1cnc(-c2cc3ccn(CCC[C@H](C)Nc4cn[nH]c(=O)c4C(F)(F)F)c(=O)c3cc2F)nc1NCC(F)F [Example 158, 6-[4-(2,2-difluoroethylamino)-5-methoxy-pyrimidin-2-yl]-7-fluoro-2-[(4S)-4-[[6-oxo-5-(trifluoromethyl)-1H-pyridazin-4-yl]amino]pentyl]isoquinolin-1-one] | 0.109 µM
COc1cnc(-c2cc3ncn(CCC[C@H](C)Nc4cn[nH]c(=O)c4C(F)(F)F)c(=O)c3cc2F)nc1NCC(F)F [Example 159, 7-[4-(2,2-difluoroethylamino)-5-methoxy-pyrimidin-2-yl]-6-fluoro-3-[(4S)-4-[[6-oxo-5-(trifluoromethyl)-1H-pyridazin-4-yl]amino]pentyl]quinazolin-4-one] | 0.283 µM
N#CC[C@@H](CCCn1ccc2cc(-c3ncc(C(F)(F)F)cn3)c(F)cc2c1=O)Nc1cn[nH]c(=O)c1C(F)(F)F [Example 160, (3R)-6-[7-fluoro-1-oxo-6-[5-(trifluoromethyl)pyrimidin-2-yl]-2-isoquinolyl]-3-[[6-oxo-5-(trifluoromethyl)-1H-pyridazin-4-yl]amino]hexanenitrile] | 0.219 µM
N#C[C@@H](CCCn1ccc2cc(-c3ncc(C(F)(F)F)cn3)c(F)cc2c1=O)Nc1cn[nH]c(=O)c1C(F)(F)F [Example 162, (2R)-5-[7-fluoro-1-oxo-6-[5-(trifluoromethyl)pyrimidin-2-yl]-2-isoquinolyl]-2-[[6-oxo-5-(trifluoromethyl)-1H-pyridazin-4-yl]amino]pentanenitrile] | 0.662 µM
O=c1[nH]ncc(N[C@@H](CO)CCCn2cnc3cc(-c4ncc(C(F)(F)F)cn4)c(F)cc3c2=O)c1C(F)(F)F [Example 164, 6-fluoro-3-[(4R)-5-hydroxy-4-[[6-oxo-5-(trifluoromethyl)-1H-pyridazin-4-yl]amino]pentyl]-7-[5-(trifluoromethyl)pyrimidin-2-yl]quinazolin-4-one] | 0.219 µM
O=c1[nH]ncc(N[C@@H](CO)CCCn2ccc3cc(-c4ncc(C(F)F)cn4)c(F)cc3c2=O)c1C(F)(F)F [Example 165] | 0.159 µM
O=c1[nH]ncc(N[C@@H](CO)CCCn2ccc3cc(-c4ncc(Cl)cn4)c(F)cc3c2=O)c1C(F)(F)F [Example 166, 6-(5-chloropyrimidin-2-yl)-7-fluoro-2-[(4R)-5-hydroxy-4-[[6-oxo-5-(trifluoromethyl)-1H-pyridazin-4-yl]amino]pentyl]isoquinolin-1-one] | 0.128 µM
Nc1nc(-c2cc3ccn(CCC[C@H](CO)Nc4cn[nH]c(=O)c4C(F)(F)F)c(=O)c3cc2F)ccc1C(F)(F)F [Example 167, 6-[6-amino-5-(trifluoromethyl)pyridin-2-yl]-7-fluoro-2-[(4R)-5-hydroxy-4-[[6-oxo-5-(trifluoromethyl)-1H-pyridazin-4-yl]amino]pentyl]isoquinolin-1-one] | 0.103 µM
C#C[C@@H](CCCn1ccc2cc(-c3ncc(C(F)(F)F)cn3)c(F)cc2c1=O)Nc1cn[nH]c(=O)c1C(F)(F)F [Example 170, 7-fluoro-2-[(4R)-4-[[6-oxo-5-(trifluoromethyl)-1H-pyridazin-4-yl]amino]hex-5-ynyl]-6-[5-(trifluoromethyl)pyrimidin-2-yl]isoquinolin-1-one] | 0.195 µM
C#C[C@H](CCCn1ccc2cc(-c3ncc(C(F)(F)F)cn3)c(F)cc2c1=O)Nc1cn[nH]c(=O)c1C(F)(F)F [Example 171, 7-fluoro-2-[(4S)-4-[[6-oxo-5-(trifluoromethyl)-1H-pyridazin-4-yl]amino]hex-5-ynyl]-6-[5-(trifluoromethyl)pyrimidin-2-yl]isoquinolin-1-one] | 0.257 µM
CN(CCCn1ccc2cc(-c3ncc(C(F)(F)F)cn3)c(F)cc2c1=O)Nc1cn[nH]c(=O)c1C(F)(F)F [Example 172, 7-fluoro-2-(3-(1-methyl-2-(6-oxo-5-(trifluoromethyl)-1,6-dihydropyridazin-4-yl)hydrazineyl)propyl)-6-(5-(trifluoromethyl)pyrimidin-2-yl)isoquinolin-1(2H)-one] | 1.01 µM
C[C@@H](CCCn1ccc2cc(-n3cc(C(F)(F)F)cn3)ccc2c1=O)Nc1cn[nH]c(=O)c1C(F)(F)F [Example 173, (S)-2-(4-((6-oxo-5-(trifluoromethyl)-1,6-dihydropyridazin-4-yl)amino)pentyl)-6-(4-(trifluoromethyl)-1H-pyrazol-1-yl)isoquinolin-1(2H)-one] | 0.27 µM
C[C@@H]1C[C@@H](CCCn2ccc3cc(-c4ncc(C(F)(F)F)cn4)c(F)cc3c2=O)N(c2cn[nH]c(=O)c2C(F)(F)F)C1 [Example 174, 7-fluoro-2-(3-((2R,4R)-4-methyl-1-(6-oxo-5-(trifluoromethyl)-1,6-dihydropyridazin-4-yl)pyrrolidin-2-yl)propyl)-6-(5-(trifluoromethyl)pyrimidin-2-yl)isoquinolin-1(2H)-one] | 0.287 µM
C[C@@H]1C[C@@H](CCCn2cnc3cc(-c4ncc(C(F)(F)F)cn4)c(F)cc3c2=O)N(c2cn[nH]c(=O)c2C(F)(F)F)C1 [Example 176, 6-fluoro-3-[3-[(2R,4R)-4-methyl-1-[6-oxo-5-(trifluoromethyl)-1H-pyridazin-4-yl]pyrrolidin-2-yl]propyl]-7-[5-(trifluoromethyl)pyrimidin-2-yl]quinazolin-4-one] | 0.186 µM
COc1cnc(-c2cc3ncn(CCC[C@@H]4C[C@@H](C)CN4c4cn[nH]c(=O)c4C(F)(F)F)c(=O)c3cc2F)nc1N [Example 177, 7-(4-amino-5-methoxypyrimidin-2-yl)-6-fluoro-3-[3-[(2R,4R)-4-methyl-1-[6-oxo-5-(trifluoromethyl)-1H-pyridazin-4-yl]pyrrolidin-2-yl]propyl]quinazolin-4-one] | 0.537 µM
O=c1[nH]ncc(N2Cc3ccccc3[C@H]2CCCn2ccc3cc(-c4ncc(C(F)(F)F)cn4)c(F)cc3c2=O)c1C(F)(F)F [Example 182, 7-fluoro-2-[3-[(1R)-2-[6-oxo-5-(trifluoromethyl)-1H-pyridazin-4-yl]isoindolin-1-yl]propyl]-6-[5-(trifluoromethyl)pyrimidin-2-yl]isoquinolin-1-one] | 0.0825 µM

These reach a lower EC50. Values come first.

EC50 | Compound
0.0661 µM | COc1cnc(-c2cc3ccn(CCC[C@H](C)Nc4cn[nH]c(=O)c4C(F)(F)F)c(=O)c3cc2F)nc1N1CCC1 [Example 186, (S)-6-(4-(azetidin-1-yl)-5-methoxypyrimidin-2-yl)-7-fluoro-2-(4-((6-oxo-5-(trifluoromethyl)-1,6-dihydropyridazin-4-yl)amino)pentyl)isoquinolin-1(2H)-one]
0.0619 µM | Cc1nnc([C@@H](CCCn2ccc3cc(-c4ncc(C(F)(F)F)cn4)c(F)cc3c2=O)Nc2cn[nH]c(=O)c2C(F)(F)F)o1 [Example 169, 7-fluoro-2-[(4R)-4-(5-methyl-1,3,4-oxadiazol-2-yl)-4-[[6-oxo-5-(trifluoromethyl)-1H-pyridazin-4-yl]amino]butyl]-6-[5-(trifluoromethyl)pyrimidin-2-yl]isoquinolin-1-one]
0.0575 µM | COc1cnc(-c2cc3ccn(CCC[C@@H]4C[C@@H](C)CN4c4cn[nH]c(=O)c4C(F)(F)F)c(=O)c3cc2F)nc1N [Example 175, 6-(4-amino-5-methoxypyrimidin-2-yl)-7-fluoro-2-[3-[(2R,4R)-4-methyl-1-[6-oxo-5-(trifluoromethyl)-1H-pyridazin-4-yl]pyrrolidin-2-yl]propyl]isoquinolin-1-one]
0.0287 µM | CC#C[C@@H](CCCn1ccc2cc(-c3ncc(C(F)(F)F)cn3)c(F)c(F)c2c1=O)Nc1cn[nH]c(=O)c1C(F)(F)F [Example 161, 7,8-difluoro-2-[(4R)-4-[[6-oxo-5-(trifluoromethyl)-1H-pyridazin-4-yl]amino]hept-5-ynyl]-6-[5-(trifluoromethyl)pyrimidin-2-yl]isoquinolin-1-one]
0.0207 µM | C[C@@H](CCCn1ccc2cc(-c3ncc(C(F)(F)F)c(N4CCC4)n3)c(F)cc2c1=O)Nc1cn[nH]c(=O)c1C(F)(F)F [Example 187, (S)-6-(4-(azetidin-1-yl)-5-(trifluoromethyl)pyrimidin-2-yl)-7-fluoro-2-(4-((6-oxo-5-(trifluoromethyl)-1,6-dihydropyridazin-4-yl)amino)pentyl)isoquinolin-1(2H)-one]
0.0142 µM | [2H]C([2H])([2H])OC[C@@H](CCCn1ccc2cc(-c3ncc(C(F)(F)F)cn3)c(F)cc2c1=O)Nc1cn[nH]c(=O)c1C(F)(F)F [Example 181, (R)-7-fluoro-2-(5-(methoxy-d3)-4-((6-oxo-5-(trifluoromethyl)-1,6-dihydropyridazin-4-yl)amino)pentyl)-6-(5-(trifluoromethyl)pyrimidin-2-yl)isoquinolin-1(2H)-one]
0.00639 µM | O=c1[nH]ncc(N[C@H]2CCC[C@@H](Cn3ccc4cc(-c5ncc(C(F)(F)F)cn5)c(F)cc4c3=O)C2)c1C(F)(F)F [Example 183, 7-fluoro-2-[[(1R,3S)-3-[[6-oxo-5-(trifluoromethyl)-1H-pyridazin-4-yl]amino]cyclohexyl]methyl]-6-[5-(trifluoromethyl)pyrimidin-2-yl]isoquinolin-1-one]
0.00403 µM | O=c1[nH]ncc(N[C@H]2CCC[C@@H]2CCn2ccc3cc(-c4ncc(C(F)(F)F)cn4)c(F)cc3c2=O)c1C(F)(F)F [Example 179, 7-fluoro-2-(2-((1R,2S)-2-((6-oxo-5-(trifluoromethyl)-1,6-dihydropyridazin-4-yl)amino)cyclopentyl)ethyl)-6-(5-(trifluoromethyl)pyrimidin-2-yl)isoquinolin-1(2H)-one]
0.00189 µM | CCOC[C@@H](CCCn1ccc2cc(-c3ncc(C(F)(F)F)cn3)c(F)cc2c1=O)Nc1cn[nH]c(=O)c1C(F)(F)F [Example 180, (R)-2-(5-ethoxy-4-((6-oxo-5-(trifluoromethyl)-1,6-dihydropyridazin-4-yl)amino)pentyl)-7-fluoro-6-(5-(trifluoromethyl)pyrimidin-2-yl)isoquinolin-1(2H)-one]
0.0018 µM | Nc1nc(-c2cc3ccn(CC[C@H]4CCC[C@@H]4Nc4cn[nH]c(=O)c4C(F)(F)F)c(=O)c3cc2F)ncc1C(F)(F)F [Example 178, 6-(4-amino-5-(trifluoromethyl)pyrimidin-2-yl)-7-fluoro-2-(2-((1R,2S)-2-((6-oxo-5-(trifluoromethyl)-1,6-dihydropyridazin-4-yl)amino)cyclopentyl)ethyl)isoquinolin-1(2H)-one]
